# Assay results taken from patent publication US20160067221A1, “USE OF ERGOTHIONEINE FOR INDUCING ACTIVITY OF NRF2 IN CELL” (China Medical University, priority 2014, published 2016).
# How the values were obtained:
# Type in all cases: cell-based, human
# HaCaT cells = test: Cell viability by MTT assay, with or without UVA irradiation
# Description: To examine a safety of the ergothioneine and a safe used dose of the ergothioneine to normal cells, HaCaT cells, human keratinocyte cell lines, are treated with different dose of the ergothioneine and then detected a cell viability.
# The HaCaT cells are maintained at 37° C. in a humidified atmosphere of 5% CO2 in a culture medium (Dulbecco's modified Eagle medium/high glucose (DMEM) supplemented with 10% heat-inactivated fetal bovine serum (FBS)).
# The cell viability is monitored using a method of […] (MTT assay). The HaCaT cells are seeded in a 12-well plate with 1×10^5 cells/well and then maintained at 37° C. in a humidified atmosphere of 5% CO2 untill the HaCaT cells are adhered in the next day. The HaCaT cells are subsequently incubated with or without the ergothioneine, and then maintained at 37° C. in a humidified atmosphere of 5% CO2 for 24 hours, wherein the concentration of the ergothioneine is 125 nM, 250 nM and 500 nM, respectively. Next, the HaCaT cells are washed with phosphate buffered saline (PBS) three times, and then irradiated with the UVA (15 J/cm^2). After the UVA irradiation, the PBS is replaced with the culture medium to culture the HaCaT cells for 4 hours. In next step, the culture medium is removed, the HaCaT cells are washed with PBS thrice, and then 450 μL of 1×MTT agent is added in each well to react at 37° C. in a humidified atmosphere of 5% CO2 for 2 hours. A culture supernatant is removed and re-suspended with 400 μL of isopropanol to dissolve MTT formazan. 200 μL of the supernatant is taken from the well and then added into a 96-well microplate to measure an absorbance at 570 nm.
# The cell viability of the HaCaT cells is detected by the MTT assay.
# [1] = system: UVA-irradiated HaCaT cells; test: TUNEL assay (UVA-induced apoptosis); conditions: 500 nM 24 hours prior to UVA 15 J/cm^2, vs UVA alone
# Description: The apoptosis can induce DNA double-strand breaks to generate a DNA fragment, To examine the effect of the ergothioneine on the UVA-induced apoptosis, an apoptotic cell death is measured using a terminal deoxyucleotidyl transferase-meditated dUTP-fluorescein nick end-labeking (TUNEL) assay, and protein expressions of apoptosis-related proteins, Caspase-3, Caspase-9, Bax and Bcl-2, are measured using a Western blot analysis. Therefore, the aforementioned methods in this example can analyze whether pretreating with the ergothioneine improves the UVA-induced apoptosis. A chromosome breakage represents an initial stage of a […]. The TUNEL assay is based on a presence of nicks in the DNA which can be identified by terminal deoxynucleotidyl transferase (TdT) at 3′ OH ends, ad the 3′ OH ends bind to dUTPs that are secondarily labeled with a fluorescent marker. After a coloration, the cells suffered the apoptosis can be identified. The HaCaT cells are incubated with or without the ergothioneine for 24 hours, wherein the concentration of the ergothioneine is 500 nM. After incubation, the HaCaT cells are exposed to the UVA (15 J/cm^2), and then cultured for 4 hours, Then, the HaCaT cells are incubated with TUNEL reaction buffer. The stained cells are visualized using the fluorescence microscope and photographed. […] FIG. 5-(B) is the quantitative diagram of the TUNEL assay.
# [2] = system: UVA-irradiated HaCaT cells; test: Western blot of apoptosis-related proteins (Caspase-3, Caspase-9, Bax, Bcl-2); conditions: 125-500 nM 24 hours prior to UVA 15 J/cm^2, 4 hours
# Description: The apoptosis can induce DNA double-strand breaks to generate a DNA fragment, To examine the effect of the ergothioneine on the UVA-induced apoptosis, an apoptotic cell death is measured using a terminal deoxyucleotidyl transferase-meditated dUTP-fluorescein nick end-labeking (TUNEL) assay, and protein expressions of apoptosis-related proteins, Caspase-3, Caspase-9, Bax and Bcl-2, are measured using a Western blot analysis. Therefore, the aforementioned methods in this example can analyze whether pretreating with the ergothioneine improves the UVA-induced apoptosis. […] After incubation, the HaCaT cells are exposed to the UVA (15 J/cm^2), and then incubated for 4 hours. Then, the protein expressions of Caspase-3, Caspase-9, Bax and Bcl-2 are measured using the Western blot analysis. FIG. 6 illustrates the effect of the ergothioneine on the protein expressions of apoptosis-related proteins of the UVA-irradiated HaCaT cells. FIG. 6-(A) represents the Western blot analysis results. FIG. 6-(B) is the quantitative diagram of the protein expressions of Caspase-3 and Caspase-9. FIG. 6-(C) is the quantitative diagram of a Bax/Bcl-2 ratio.
# [3] = system: antioxidant response element (ARE); test: ARE luciferase gene reporter assay; conditions: HaCaT cells treated for 4 hours, vs untreated
# Excerpt: The Nrf2 binds to the small Maf after translocating into the nucleus. […] Given that the ergothioneine treatment to the HaCaT cells can promote the Nrf2 translocating into the nucleus; this example next investigates whether the ARE transcriptional activity can be started by using a luciferase gene reporter assay. The luciferase gene reporter assay is transfected a plasmid containing the ARE gene and a luciferase gene into the HaCaT cells, wherein the luciferase gene is a reporter gene. An internal standard of the luciferase gene reporter assay is β-galactosidase, and a luminescence intensity is measured by Dual Light Kit (Applied Biosystems).
# [4] = system: Nrf2 knockdown HaCaT cells; test: TUNEL apoptosis in siRNA-transfected HaCaT cells
# Description: The siRNA transfection includes steps as follows. The HaCaT cells are seeded in a 6-well plate with 4×10^5 cells/well and then maintained at 37° C. in the humidified atmosphere of 5% CO2 untill the time of the transfection. The day after reaching 40-60% confluence, the culture medium is replaced with 1 mL of FBS-free and antibiotic-free culture medium in each well, and the HaCaT cells are transfected with a siNrf2 or a control siRNA by using Lipofectamine 2000 (Invitrogen, U.S.A.) for 4-6 hours. After the incubation for 4-6 hours, the HaCaT cells are washed with the culture medium supplemented with 10% FBS 2-3 times, and then cultured in the culture medium supplemented with 10% FBS for 12-16 hours.
smiles,measurement,setting,value
"C[N+](C)(C)[C@@H](Cc1c[nH]c(=S)[nH]1)C(=O)[O-] [ergothioneine, 2-mercapto histidine trimethylbetain]",cell death at respective dose of UVA irradiation,"HaCaT cells; 500 nM for 2 hours, UVA 5-15 J/cm^2",significantly attenuated
same,cytotoxic effects (cell viability),"HaCaT cells; HaCaT cells, 125-500 nM, 24 hours",does not cause any cytotoxic effects
same,cell viability,"HaCaT cells; pretreated with 500 nM, then UVA 15 J/cm^2, cultured 4 hours",75.5%
same,UVA-induced cell death,"HaCaT cells; pretreatment 125-500 nM, UVA 15 J/cm^2",attenuates a UVA-induced cell death in a dose-dependent manner
same,amount of TUNEL fluorescence (apoptosis),[1],enormously reduced
same,Bax/Bcl-2 ratio,[2],significantly reduced
same,protein expression of Caspase-3,[2],significantly reduced
same,protein expression of Caspase-9,[2],significantly reduced
same,luciferase activity derived from the ARE promoter,[3],increased
same,UVA-induced apoptosis (TUNEL),"[4]; Nrf2 siRNA, ergothioneine pretreatment, UVA",unable to improve the UVA-induced apoptosis
same,apoptosis (TUNEL),"[4]; control siRNA, ergothioneine prior to UVA, vs UVA alone",significantly decreased
